Earlier results, collected in US20210284969A1, “METHODS AND SYSTEMS FOR TRANSPORTATION AND CULTURE OF BUOYANT TISSUE” (eXo Cell, LLC, priority 2020, published 2021).

Assays:
[1] = tested on: obese, diabetic yellow KK mice
[2] = tested on: obese human males
[3] = tested on: brown adipose tissue; conditions: in humans

C[C@H](Cc1ccc2c(c1)OC(C(=O)[O-])(C(=O)[O-])O2)NC[C@H](O)c1cccc(Cl)c1.[Na+].[Na+] [CL-316243]
effect on obesity [1]: ameliorated obesity

O=S(=O)(Nc1ccc(CCNC[C@H](O)c2cccnc2)cc1)c1ccc(-c2nc(-c3ccc(C(F)(F)F)cc3)cs2)cc1 [L-796568]
anti-obesity effects [2]: did not generate notable anti-obesity effects | energy expenditure [2]: improved energy expenditure

Nc1nc(CC(=O)Nc2ccc(CCNC[C@H](O)c3ccccc3)cc2)cs1 [migrabegron]
brown adipose tissue activation [3]: activate brown adipose tissue
